In ChEMBL document CHEMBL6120940, “Discovery of N-Aryl-N'-[4-(aryloxy)cyclohexyl]squaramide-Based Inhibitors of LXR/SREBP-1c Signaling Pathway Ameliorating Steatotic Liver Disease: Navigating the Role of SIRT6 Activation” (J Med Chem, 2024):

Key:
[1] = target: T1, Sterol regulatory element-binding protein 1 (Homo sapiens) (UniProt P36956); assay: Inhibition of SREBP-1c transcriptional activity in human HepG2 cells expressing LXRalpha/RXRalpha assessed as reduction in SRE-luciferase level at 10 uM pretreated with compound for 30 mins followed by T0901317 addition and measured after 12 hrs by Dual-Glo luciferase assay relative to control; assay type: cell-based; conditions: time 12.5 hrs
T1 sequence (whole entry): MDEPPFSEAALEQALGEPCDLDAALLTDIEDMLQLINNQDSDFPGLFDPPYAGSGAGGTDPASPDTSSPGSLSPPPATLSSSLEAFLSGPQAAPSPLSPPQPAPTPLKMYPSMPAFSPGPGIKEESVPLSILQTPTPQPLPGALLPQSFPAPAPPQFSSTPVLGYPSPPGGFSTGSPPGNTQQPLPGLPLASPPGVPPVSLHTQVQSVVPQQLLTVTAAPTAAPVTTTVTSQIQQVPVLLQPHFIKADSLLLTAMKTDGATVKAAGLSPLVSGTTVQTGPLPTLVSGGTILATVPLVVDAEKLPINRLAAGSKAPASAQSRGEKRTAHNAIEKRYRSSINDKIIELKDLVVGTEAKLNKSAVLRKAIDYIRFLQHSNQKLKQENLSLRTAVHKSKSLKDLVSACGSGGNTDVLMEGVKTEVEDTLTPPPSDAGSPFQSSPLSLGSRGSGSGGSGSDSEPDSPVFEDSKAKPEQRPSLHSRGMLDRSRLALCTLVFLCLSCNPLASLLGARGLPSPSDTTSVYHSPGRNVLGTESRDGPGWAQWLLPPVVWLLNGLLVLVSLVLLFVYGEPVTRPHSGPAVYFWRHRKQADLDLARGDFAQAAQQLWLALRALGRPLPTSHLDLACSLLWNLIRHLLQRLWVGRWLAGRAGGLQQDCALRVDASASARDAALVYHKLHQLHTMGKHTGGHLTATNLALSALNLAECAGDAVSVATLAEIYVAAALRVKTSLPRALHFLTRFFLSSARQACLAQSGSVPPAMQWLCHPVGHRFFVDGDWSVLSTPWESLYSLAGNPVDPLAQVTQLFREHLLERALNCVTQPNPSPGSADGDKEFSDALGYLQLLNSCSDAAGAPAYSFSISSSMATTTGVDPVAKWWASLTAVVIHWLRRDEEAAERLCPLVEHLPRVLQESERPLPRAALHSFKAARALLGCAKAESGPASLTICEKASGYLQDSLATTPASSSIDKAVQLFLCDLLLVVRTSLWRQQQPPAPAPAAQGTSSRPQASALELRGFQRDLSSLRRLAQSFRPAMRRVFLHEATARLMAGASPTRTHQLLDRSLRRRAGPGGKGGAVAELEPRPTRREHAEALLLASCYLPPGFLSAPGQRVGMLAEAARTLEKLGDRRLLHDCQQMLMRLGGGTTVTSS

[2] = Downregulation of SREBP-1c mRNA expression in human HepG2 cells at 10 uM pretreated with compound for 30 mins followed by T0901317 addition and measured after 12 hrs by RT-qPCR analysis relative to control; assay type: functional; conditions: time 12.5 hrs
HepG2 = assay: Cytotoxicity against human HepG2 cells at 10 uM measured after 24 hrs by CCK-8 method relative to control; assay type: functional

COc1ccc(Nc2c(N[C@H]3CC[C@H](Oc4ccc(S(C)(=O)=O)cc4)CC3)c(=O)c2=O)cc1
inhibition [1]: 53.3%
Activity [2]: 34.2%
Activity (HepG2): 93.9%

N#Cc1ccc(O[C@H]2CC[C@H](Nc3c(Nc4ccc(F)cc4)c(=O)c3=O)CC2)cc1
inhibition [1]: 46.2%
Activity [2]: 87.4%
Activity (HepG2): 77%

COc1ccc(Nc2c(N[C@H]3CC[C@H](Oc4ccc([N+](=O)[O-])cc4)CC3)c(=O)c2=O)cc1
inhibition [1]: 57.6%
Activity [2]: 34.3%
Activity (HepG2): 88.4%

CS(=O)(=O)c1ccc(O[C@H]2CC[C@H](Nc3c(Nc4ccccc4)c(=O)c3=O)CC2)cc1
inhibition [1]: 76.2%
Activity [2]: 76.1%
Activity (HepG2): 76.2%

O=c1c(Nc2ccc(F)cc2)c(N[C@H]2CC[C@H](Oc3ccc(C(F)(F)F)cc3)CC2)c1=O
inhibition [1]: 40%
Activity [2]: 59.3%
Activity (HepG2): 87.8%

COC(=O)c1ccc(Nc2c(N[C@H]3CC[C@H](Oc4ccc(C(F)(F)F)cc4)CC3)c(=O)c2=O)cc1
inhibition [1]: 47.5%
Activity [2]: 91.6%
Activity (HepG2): 104.7%

O=c1c(Nc2ccccc2)c(N[C@H]2CC[C@H](Oc3ccc([N+](=O)[O-])cc3)CC2)c1=O
inhibition [1]: 59.6%
Activity [2]: 82.7%
Activity (HepG2): 102.8%

CC(C)(C)c1ccc(Nc2c(N[C@H]3CC[C@H](Oc4ccc(C(F)(F)F)cc4)CC3)c(=O)c2=O)cc1
inhibition [1]: 32.6%
Activity [2]: 68%
Activity (HepG2): 95.9%

COc1ccccc1Nc1c(N[C@H]2CC[C@H](Oc3ccc(S(C)(=O)=O)cc3)CC2)c(=O)c1=O
inhibition [1]: 22.2%
Activity [2]: 34.4%
Activity (HepG2): 962%

COc1cccc(Nc2c(N[C@H]3CC[C@H](Oc4ccc(C#N)cc4)CC3)c(=O)c2=O)c1
inhibition [1]: 51.1%
Activity [2]: 60.6%
Activity (HepG2): 91.4%

CS(=O)(=O)c1ccc(O[C@H]2CC[C@H](Nc3c(Nc4ccc(F)cc4)c(=O)c3=O)CC2)cc1
Activity [2]: 24%
Activity (HepG2): 91.3%

O=C(Nc1ccc(Br)cc1)Nc1cccnc1
Activity [2]: 56.6%

CC(C)(C)c1ccc(Nc2c(N[C@H]3CC[C@H](Oc4ccc(C#N)cc4)CC3)c(=O)c2=O)cc1
inhibition [1]: 30.1%
Activity [2]: 61.5%
Activity (HepG2): 87.4%

COC(=O)c1ccc(Nc2c(N[C@H]3CC[C@H](Oc4ccc(C#N)cc4)CC3)c(=O)c2=O)cc1
inhibition [1]: 50.4%
Activity [2]: 65.9%
Activity (HepG2): 99.1%

COc1cccc(Nc2c(N[C@H]3CC[C@H](Oc4ccc(C(F)(F)F)cc4)CC3)c(=O)c2=O)c1
inhibition [1]: 41.5%
Activity [2]: 69.9%
Activity (HepG2): 97.4%

COc1ccc(Nc2c(N[C@H]3CC[C@H](Oc4ccc(C#N)cc4)CC3)c(=O)c2=O)cc1
inhibition [1]: 35.7%
Activity [2]: 70.6%
Activity (HepG2): 88.3%

O=c1c(Nc2ccc(Cl)cc2)c(N[C@H]2CC[C@H](Oc3ccc([N+](=O)[O-])cc3)CC2)c1=O
inhibition [1]: 24.3%
Activity [2]: 49.8%
Activity (HepG2): 78.6%

COC(=O)c1ccc(Nc2c(N[C@H]3CC[C@H](Oc4ccc(S(C)(=O)=O)cc4)CC3)c(=O)c2=O)cc1
inhibition [1]: 40.5%
Activity [2]: 22.3%
Activity (HepG2): 90.1%

O=c1c(Nc2ccc(Cl)cc2)c(N[C@H]2CC[C@H](Oc3ccc(C(F)(F)F)cc3)CC2)c1=O
inhibition [1]: 39.1%
Activity [2]: 103.6%
Activity (HepG2): 88.4%

CC(C)(C)c1ccc(Nc2c(N[C@H]3CC[C@H](Oc4ccc(S(C)(=O)=O)cc4)CC3)c(=O)c2=O)cc1
inhibition [1]: 26.9%
Activity [2]: 68.5%
Activity (HepG2): 95%

O=c1c(Nc2ccccc2)c(N[C@H]2CC[C@H](Oc3ccc(C(F)(F)F)cc3)CC2)c1=O
inhibition [1]: 70.8%
Activity [2]: 77%
Activity (HepG2): 93.2%

N#Cc1ccc(O[C@H]2CC[C@H](Nc3c(Nc4ccccc4)c(=O)c3=O)CC2)cc1
inhibition [1]: 80.1%
Activity [2]: 84.8%
Activity (HepG2): 90.6%

COc1cccc(Nc2c(N[C@H]3CC[C@H](Oc4ccc(S(C)(=O)=O)cc4)CC3)c(=O)c2=O)c1
inhibition [1]: 51.1%
Activity [2]: 62.5%
Activity (HepG2): 100.4%

COc1ccccc1Nc1c(N[C@H]2CC[C@H](Oc3ccc(C(F)(F)F)cc3)CC2)c(=O)c1=O
inhibition [1]: 21.5%
Activity [2]: 30%
Activity (HepG2): 77.8%

COc1ccc(Nc2c(N[C@H]3CC[C@H](Oc4ccc(C(F)(F)F)cc4)CC3)c(=O)c2=O)cc1
inhibition [1]: 35.6%
Activity [2]: 28.7%
Activity (HepG2): 94.8%

COC(=O)c1ccc(Nc2c(N[C@H]3CC[C@H](Oc4ccc([N+](=O)[O-])cc4)CC3)c(=O)c2=O)cc1
inhibition [1]: 41.7%
Activity [2]: 26.7%
Activity (HepG2): 91%

N#Cc1ccc(O[C@H]2CC[C@H](Nc3c(Nc4ccc(Cl)cc4)c(=O)c3=O)CC2)cc1
inhibition [1]: 87.1%
Activity [2]: 36.9%
Activity (HepG2): 96.2%

COc1cccc(Nc2c(N[C@H]3CC[C@H](Oc4ccc([N+](=O)[O-])cc4)CC3)c(=O)c2=O)c1
inhibition [1]: 18%
Activity [2]: 64.3%
Activity (HepG2): 87.2%

CC(C)(C)c1ccc(Nc2c(N[C@H]3CC[C@H](Oc4ccc([N+](=O)[O-])cc4)CC3)c(=O)c2=O)cc1
inhibition [1]: 42.8%
Activity [2]: 50.4%

O=c1c(Nc2ccc(F)cc2)c(N[C@H]2CC[C@H](Oc3ccc([N+](=O)[O-])cc3)CC2)c1=O
inhibition [1]: 23.9%
Activity [2]: 52.9%
Activity (HepG2): 76.7%

CS(=O)(=O)c1ccc(O[C@H]2CC[C@H](Nc3c(Nc4ccc(Cl)cc4)c(=O)c3=O)CC2)cc1
inhibition [1]: 107%
Activity [2]: 47.9%
Activity (HepG2): 90.7%
